Reference: PubChem BioAssay AID504461 (NMMLSC, 2011)
The source made the active and inactive calls.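 The calls were made as follows: active = compounds whose fitted half-effect concentration on CIT2 GFP level is 33 micromolar or lower; inactive = the rest.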

Test system: S. cerevisiae CIT2-GFP strain, flow cytometry GFP, 3 h
Test: yeast TOR pathway CIT2-GFP reporter analogs – flow cytometry, KU set 2, dose response, SAR follow-up (AID 504461)
Conditions: not given

Row | Structure (SMILES) | EC50
1 | CNc1nc(N)c(C(=O)c2ccc(C)c(C)c2)c(Nc2cccc(Cl)c2)n1 | 129 µM (inactive)
2 | CCNc1nc(N)c([N+](=O)[O-])c(Nc2cccc(Cl)c2)n1 | 73.5 µM (inactive)

Test system: not listed separately
Test: as above
Conditions: S. cerevisiae CIT2-GFP strain, flow cytometry GFP, 3 h; at 100 µM (top of the series)

Row | Structure (SMILES) | GFP fluorescence (kMESF)
3 | CNc1nc(N)c([N+](=O)[O-])c(Nc2cccc(OC)c2)n1 | 5.3 kMESF (inactive)
4 | CNc1nc(NC2CCCCC2)c([N+](=O)[O-])c(N2CCOCC2)n1 | 3.39 kMESF (inactive)
5 | CNc1nc(NC)c([N+](=O)[O-])c(Nc2cccc(Cl)c2)n1 | 3.32 kMESF (inactive)
6 | CNc1nc(N)c([N+](=O)[O-])c(Nc2ccccc2F)n1 | 4.24 kMESF (inactive)
7 | CNc1nc(N)c([N+](=O)[O-])c(Nc2ccccc2Br)n1 | 3.6 kMESF (inactive)
8 | CNc1nc(N)c([N+](=O)[O-])c(Nc2cccc(Br)c2)n1 | 5.3 kMESF (inactive)
9 | CCNc1nc(NC2CCCCC2)c([N+](=O)[O-])c(N2CCOCC2)n1 | 3.39 kMESF (inactive)
10 | CNc1nc(N)c([N+](=O)[O-])c(Nc2cccc(Oc3ccccc3)c2)n1 | 3.53 kMESF (inactive)

Same assay, conditions: S. cerevisiae CIT2-GFP strain, flow cytometry GFP, 3 h; at 300 µM (top of the series)

Row | Structure (SMILES) | GFP fluorescence (kMESF)
11 | Cc1cc(Nc2cc(-c3ccccc3)nc(NCc3ccccc3)n2)n[nH]1 | 4.23 kMESF (inactive)
12 | Cc1cc(Nc2cc(Nc3ccccc3)nc(NCc3ccccc3)n2)n[nH]1 | 4.57 kMESF (inactive)
13 | COC(=O)c1cccc(-c2cc(Nc3cc(C)[nH]n3)nc(NCc3ccccc3)n2)c1 | 4.85 kMESF (inactive)
14 | O=[N+]([O-])c1c(NC2CCCCC2)nc(NCc2ccccc2)nc1N1CCOCC1 | 4.5 kMESF (inactive)
15 | CNc1nc(N)cc(Nc2cccc(Cl)c2)n1 | 4.78 kMESF (inactive)
16 | CNc1nc(N)cc(Nc2ccccc2F)n1 | 5.53 kMESF (inactive)
17 | COc1cccc(-c2cc(Nc3cc(C)[nH]n3)nc(NCc3ccccc3)n2)c1 | 4.64 kMESF (inactive)
18 | CNc1nc(N)cc(Oc2cccc(Cl)c2)n1 | 3.55 kMESF (inactive)
19 | CCOC(=O)c1c(N)nc(NC)nc1Nc1cccc(F)c1 | 5.12 kMESF (inactive)
20 | COc1ccccc1-c1cc(Nc2cc(C)[nH]n2)nc(NCc2ccccc2)n1 | 4.5 kMESF (inactive)
